As a reminder, the IC50 is the midpoint of a concentration-inhibition curve.

Structures are written as SMILES. Where only a bound is given, the exact number is not on record here.

One data set concerns H9C2 cells. Description: MTT cytotoxicity assay, H9C2 (non-tumor). It is filed as cell-based, rat. The text has this: (§1) HepG2 (human hepatocellular carcinoma), Hela (human cervical cancer), HT-29 (human colon carcinoma), MDCK (Madin–Darby canine kidney), H9C2 (rat myocardial cells) and HY926 were purchased from the Chinese Academy of Medical Sciences and Peking Union Medical College. All of these cell lines were maintained in RPMI-1640 (DMEM) supplemented with 10% (v/v) fetal bovine serum (FBS) and 1% (v/v) penicillin/streptomycin (Thermo Technologies, New York, NY, USA) under a humidified atmosphere containing 5% CO2 at 37 °C. To provide stock solutions which were used to prepare various concentrations of treatment media, GA and hybrids were added a volume of DMSO.
(§2) The cytotoxicity of these compounds was evaluated on three human cancer cell lines (HepG2, HT-29, Hela) and three non-tumor cells lines (MDCK, HY926, H9C2) and MTT assay was performed to detect the cell proliferation. Simply, exponentially growing cells were cultured in 96-well plates (3 × 10^3 cells/well). And the plates were placed in a humidified atmosphere for 72 h at 37 °C with 5% CO2. After added MTT solution (5 mg/mL) 20 μL to each well, the plate was incubated for a further 4 h. Then the cell supernatant was removed and 150 μL DMSO was added. Finally, the absorbance was determined at wavelength of 490 nm with the ELISA. Wells without drugs were used to be blanks. The IC50 values were calculated using Logit-method. The following Eq. (1) was proposed to calculate the inhibitory rate of cell growth:1 %inhibition=1-Sample group OD/Control group OD×100%
A general note: Formazan colour is commonly taken as a measure of viable cells.

The subject of data set [1] is Hela cells. Briefly: Annexin V-FITC/PI flow cytometric apoptosis assay. In kind it is cell-based, human. Conditions: 72 h, control 7.5%. The protocol:
Hela cells were seeded in 12-well plates (5 × 10^4 cells/well), which were placed in a humidified atmosphere for 24 h at 37 °C with 5% CO2. After treated with different concentrations of 8a (5, 10, 20 μM) for 72 h, all cells were collected respectively with the right amount of trypsin (without EDTA) digestion. After added 1 mL cold PBS, the cells were gently suspended and centrifuged at 1000 rpm for 5 min. The harvested cells were suspended in 200 μL binding buffer which contained 10 μL Annexin V-FITC and PI. After avoided light reaction for 15 min, the cells were analyzed with a flow cytometry (BD, USA).

The test system of data set [2] is Hela cells. Description: Giemsa staining on Hela cells. In kind it is cell-based, human. Conditions: 5, 10, 20 μM, 72 h, with increase of concentration. The procedure:
Hela cells were seeded in 12-well plates (5 × 10^3 cells/well), and then they were cultured for 24 h at 37 °C with 5% CO2. After that each group was added 8a, making the final concentration of 0, 5, 10, 20 μM respectively. After 72 h, the cell supernatant was removed and the cells were cleaned with PBS twice, then kept in PBS/ethanol (1:1) for 2 min and fixed with cold ethanol for 10 min. After discarding ethanol, the cells were stained with Giemsa (Giemsa, Molecular Probes/Invitrogen Life Technologies, Carlsbad, CA, USA) stained for 5 min and washed with water. In the end, the cells were observed and photographed under inverted phase-contrast microscope at a magnification of 200×.

For a further data set, the system named is HepG2 cells. Briefly: MTT cytotoxicity assay, HepG2. In kind it is cell-based, human. Conditions: 72 h, mean ± SD (n = 3).
Text: as §1, §2

The next data set deals with HT-29 cells. Description: MTT cytotoxicity assay, HT-29. It is filed as cell-based, human. Conditions: 72 h, mean ± SD (n = 3).
Text: as §1, §2

In a further data set the test system is MDCK cells. Description: MTT cytotoxicity assay, MDCK (non-tumor). It is filed as cell-based, canine.
Text: as §1, §2

The test system of the next data set is Kunming mice. Briefly: Acute toxicity by gavage in Kunming mice. In kind it is in vivo. The text has this: Forty healthy Kunming mice (weight 18–22 g) of both sexes were purchased from Beijing Vital River Laboratory Animal Technology Company Limited (Beijing, China). The mice were divided into two groups matched the same weight and size, along with the standard in our previous studies. In briefly, 20 mice were selected for blank control group, and the other 20 mice were for the treated group. All experiments followed the guidelines of “Regulation for the Administration of Affairs Concerning Experimental Animals” (State Council of China, 1988). All animals were placed in cages, fed with standard rodent chow and water ad libitum under a 12-h light–dark cycle. Before the experiments, the mice were deprived of food for 12 h but provided water freely. Then the treated group of both sexes were administered a single dose of 8a (0.3 mL/10 g) via gavage twice a day, which was prepared in advance in bean oil solution with the maximum suspended dose (50 mg/mL). The total administration of 8a was 3 g/kg during 8 h. And the blank control group were given bean oil by oral administration only. The mice’s general behavior was continuously noted in the first hour, intermittently observed in the next 4 h, and thereafter over a period of 24 h. Observations of the signs for toxicity and deaths were last for 14 days. The mortality response and behavior of toxic effects of mice were recorded.

A further data set concerns caspase-3. Briefly: Caspase-3 activity assay (Ac-DEVD-pNA cleavage) in Hela cells. Conditions: 5, 10, 20 μM, 48 h. It is filed as cell-based, human. The protocol:
Hela cells were seeded in dishes at a density of 5 × 10^5 cell per dish and the dishes were kept at 37 °C with 5% CO2 for 24 h. On the next day, various concentration of 8a (0, 5, 10, 20 μM) were added to the cells and cultured for 48 h. Pre-cooled PBS were added twice to wash the cells. After removal of the medium, ice-cold cell lysis buffer was added, and the cells were further incubated in an ice bath for 15 min, which contribute to the protein acquisition. The caspase-3 activity kit (Beyotime Institute of Biotechnology, Beijing, China) was used to determine the activity of caspase-3. A total of 50 μL cell lysates, 40 μL reaction buffer and 10 μL caspase-3 substrate (Ac-DEVDpNA) (2 mM) were added to 96-well plates. After 30 min of incubation, absorbance was measured at 405 nm, and samples were quantified with ELISA.

The test system of data set [3] is Hela cells. Briefly: H33342 staining on Hela cells. It is filed as cell-based, human. The following applies: 5, 10, 20 μM, 72 h, with increase of concentration. The procedure:
H33342 staining was used to confirm whether the characteristic nuclear changes were associated with 8a in this assay. Hela cells were cultured in 12-well plates (5 × 10^4 cells/well), which were placed in a humidified atmosphere for 24 h at 37 °C with 5% CO2. And then each group was added 8a, making the final concentration of 0, 5, 10, 20 μM respectively. After 72 h, cell culture medium was discarded and the cells were washed twice with PBS. H33342 staining was then performed for 2 min and washed with water. In the end, the cells were observed and photographed under inverted phase-contrast microscope at a magnification of 200×.

For data set [4], the system named is Hela cells. Briefly: MTT cytotoxicity assay, Hela. It is filed as cell-based, human.
Text: as §1, §2

The next data set has as its system HY926 cells. Briefly: MTT cytotoxicity assay, HY926 (non-tumor). In kind it is cell-based.
Text: as §1, §2

[5] abbreviates: MTT, 72 h, mean ± SD (n = 3), non-tumor cells.

Take `COc1ccc(/C=C/C(=O)OC2CCC3(C)C(CCC4(C)C3C(=O)C=C3C5CC(C)(C(=O)O)CCC5(C)CCC34C)C2(C)C)c(OC)c1OC` (stereo not drawn) [Compound 8a, (2,3,4-Trimethoxy) cinnamoyl-3β-hydroxy-11-oxoolean-12-en-30-oic acid]: the “inhibition rate against H9C2” value in the data set with H9C2 cells (12.5 μM) worked out at 3.56%. Also, the IC50 with H9C2 cells (setting [5]) is more than 50 µM; with HepG2 cells, 21.5 ± 1.5 µM; in the data set with HT-29 cells it was 15 ± 1.26 µM; in the data set with MDCK cells (setting [5]) it was 31.8 ± 2.79 µM; in the data set with Hela cells [4] (MTT, 72 h, mean ± SD (n = 3)), 8.54 ± 1.44 µM; with HY926 cells (setting [5]), 27.7 ± 1.39 µM. In addition, the apoptosis ratio came out at 15.7% in the data set on Hela cells [1] (5 μM), 27.7% in the data set with Hela cells [1] (10 μM) and 60% in the data set with Hela cells [1] (20 μM). Further, the “morphological changes by Giemsa staining” value with Hela cells [2] was “cell loss, nuclei lysis, chromatin condensation and cytoplasmic shrinkage were aggravated”. Moreover, the “inhibition rate against MDCK” value in the data set on MDCK cells (12.5 μM) was determined as 38.56%. Moreover, the “signs of toxicity or deaths” value in the data set on Kunming mice (maximum tolerated dose 3 g/kg oral (gavage), 2 weeks observation, mice) was “no signs of toxicity or deaths were observed”. The LD50 result in the data set with Kunming mice (oral administration in mice) is “exceeded 3.0 g/kg”. The “caspase-3 activities in Hela cells” value in the data set on caspase-3 is “enhanced in a concentration-dependent manner”. For the same molecule, the “nuclear changes by H33342 staining” value with Hela cells [3] is “the nuclear fragmentation, the cytoplasmic shrinkage, and the shape of apoptotic cells became irregular”. Moreover, the “inhibition rate against Hela” value in the data set with Hela cells [4] (12.5 μM) was found to be 59.20%. The “inhibition rate against HY926” value in the data set with HY926 cells (12.5 μM) is 20.20%.

Values taken from paper PMC5395518, “Design, synthesis, and biological evaluation of the novel glycyrrhetinic acid-cinnamoyl hybrids as anti-tumor agents” (Chemistry Central Journal, 2016).
